Test results as given in US20210030735A1 (Tesaro, Inc., priority 2018, published 2021).
In brackets after ≈: the same amount, converted by molar mass. Like-named read-outs stand apart in the source and are kept apart here.

Experiments:
[1] = drug substance
Method: The particle size analyzer can determine particle size using low-angle laser light scattering and calculates results in % volume based on equivalent spheres. Volume distributions for the D10, D50, D90, D4,3, and D3,2 can be determined. The suspension is added to the tank until the obscuration is in range, targeting a 10% obscuration. Measurements are taken once the obscuration remains consistent.
These batches were divided into sub-lots at various time intervals and each sub-lot was analyzed for content uniformity. The batches used are described in Table 12.

[2] = tested on: platinum-sensitive recurrent epithelial ovarian, fallopian tube, or primary peritoneal cancer; settings: for PFS Median: niraparib 300 mg QD; for HR, CFI / HR, TFST: niraparib versus placebo
Description: All patients had received at least two prior platinum-containing regimens and were in response (complete or partial) to their most recent platinum-based regimen. Eligible patients were assigned to one of two cohorts based on the results of a germline BRCA mutation test. […] Randomization occurred within 8 weeks of the last dose of the most recent platinum-containing regimen. […] Clinic visits occurred each cycle (4 weeks ±3 days). […] Prior to unblinding of the study, tumors of patients randomized to the non-gBRCAmut cohort were tested for the presence of homologous recombination deficiency (HRD) using the Myriad myChoice® HRD test, which evaluates three independent biomarkers of tumor genome instability: loss of heterozygosity, telomeric allelic imbalance, and large-scale state transitions. Tumors with homologous recombination deficiencies and those with somatic BRCA mutations were defined as HRD positive (HRDpos). The primary efficacy analysis for PFS was prospectively defined and assessed for the gBRCAmut cohort. The primary efficacy analysis for PFS was prospectively defined and assessed for the non-gBRCAmut cohort with a hierarchical testing schema. In the first step, PFS was assessed in the group of patients with HRDpos tumors and if significant, PFS was assessed in the overall non-gBRCAmut cohort. Secondary efficacy endpoints included chemotherapy-free interval (CFI), time to first subsequent therapy (TFST), PFS after the first subsequent therapy (PFS2), time to second subsequent therapy (TSST) and OS (overall survival).

[3] = tested on: tumor models
[4] = tested on: juvenile rats; settings: rat, in vivo, 1 month
[5] = tested on: beagle dogs; settings: dog, in vivo, 1 month
[6] = tested on: recurrent solid tumors that exhibit a BRCAness mutational signature; settings: oral niraparib in combination with TSR-042, patients between 6 months and 18 years
[7] = in vivo; settings: tumor, 50 mg/kg
[8] = physchem

Cc1ccc(S(=O)(=O)O)cc1.NC(=O)c1cccc2cn(-c3ccc([C@@H]4CCCNC4)cc3)nc12 [niraparib tosylate monohydrate, 2-{4-[(3S)-piperidin-3-yl]phenyl}-2H-indazole 7-carboxamide 4-methylbenzenesulfonate hydrate (1:1:1)]
bulk density [1]: 0.34-0.45 g/cc
tapped density [1]: 0.53-0.66 g/cc

NC(=O)c1cccc2cn(-c3ccc([C@@H]4CCCNC4)cc3)nc12 [Niraparib, niraparib]
PFS Median ([2]; HRDpos group of the non-gBRCAmut cohort, N = 106): 12.9 months
Median CFI (chemotherapy-free interval) ([2]; gBRCAmut cohort): 22.8 months
Median TFST (time to first subsequent therapy) ([2]; gBRCAmut cohort): 21.0 months
PFS Median ([2]; gBRCAmut cohort, N = 138): 21.0 months
HR, CFI ([2]; gBRCAmut cohort): 0.26
HR, TFST ([2]; gBRCAmut cohort): 0.31
Median CFI (chemotherapy-free interval) ([2]; non-gBRCAmut cohort): 12.7 months
Median TFST (time to first subsequent therapy) ([2]; non-gBRCAmut cohort): 11.8 months
HR, CFI ([2]; non-gBRCAmut cohort): 0.50
HR, TFST ([2]; non-gBRCAmut cohort): 0.55
PFS Median ([2]; overall non-gBRCAmut cohort, N = 234): 9.3 months
tumor regression ([3]; 50 mg/kg, daily dosing): tumor regression
tumor regression ([3]; dose of 75 mg/kg, same model): did not result in tumor regression
no-observed-adverse-effect-level [4]: 10 mg/kg/day
no-observed-adverse-effect-level [5]: 6 mg/kg/day
treatment of pediatric cancer patients, result of the study [6]: can be used successfully
concentration at 6 h [7]: 4570 ng/mL
pKa [8]: 9.95
solubility ([8]; aqueous media across the physiological pH range, aqueous buffer): 700 to 1100 µg/mL (≈ 2180 to 3430 µM)
